# The source made the active and inactive calls.
# Molecular target: T1, ADP/ATP translocase 2 (Homo sapiens, UniProt P05141)
# T1 sequence (P05141 whole entry): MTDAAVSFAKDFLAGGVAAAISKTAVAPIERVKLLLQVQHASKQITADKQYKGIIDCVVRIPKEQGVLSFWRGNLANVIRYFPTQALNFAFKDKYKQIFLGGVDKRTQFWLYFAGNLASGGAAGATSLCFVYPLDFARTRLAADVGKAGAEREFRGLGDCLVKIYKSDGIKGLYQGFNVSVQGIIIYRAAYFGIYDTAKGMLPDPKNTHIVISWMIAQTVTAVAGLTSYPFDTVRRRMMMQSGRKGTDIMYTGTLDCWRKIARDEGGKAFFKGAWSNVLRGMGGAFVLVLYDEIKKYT
# Also: in the data inactive means no Kd found up to 30 µM.
row,Compound,Kd
1,O=C(O)[C@]1(Cc2cccc(Nc3nccs3)n2)CC[C@@H](Oc2cccc(Cl)c2F)CC1 [MK-5108],> 30 µM (inactive)
2,Cc1cn(-c2cc(NC(=O)c3ccc(C)c(Nc4nccc(-c5cccnc5)n4)c3)cc(C(F)(F)F)c2)cn1 [NILOTINIB],> 30 µM (inactive)
3,OCCn1cc(-c2cnc3nnn(Cc4ccc5ncccc5c4)c3n2)cn1 [PF-04217903],> 30 µM (inactive)
4,CNC(=O)c1ccc(C)c(-n2c(C)cc(OCc3ccc(F)cc3F)c(Br)c2=O)c1 [PH-797804],> 30 µM (inactive)

# Molecular target: Bone morphogenetic protein receptor type-1A (Homo sapiens, UniProt P36894)
# Sequence (P36894 whole entry): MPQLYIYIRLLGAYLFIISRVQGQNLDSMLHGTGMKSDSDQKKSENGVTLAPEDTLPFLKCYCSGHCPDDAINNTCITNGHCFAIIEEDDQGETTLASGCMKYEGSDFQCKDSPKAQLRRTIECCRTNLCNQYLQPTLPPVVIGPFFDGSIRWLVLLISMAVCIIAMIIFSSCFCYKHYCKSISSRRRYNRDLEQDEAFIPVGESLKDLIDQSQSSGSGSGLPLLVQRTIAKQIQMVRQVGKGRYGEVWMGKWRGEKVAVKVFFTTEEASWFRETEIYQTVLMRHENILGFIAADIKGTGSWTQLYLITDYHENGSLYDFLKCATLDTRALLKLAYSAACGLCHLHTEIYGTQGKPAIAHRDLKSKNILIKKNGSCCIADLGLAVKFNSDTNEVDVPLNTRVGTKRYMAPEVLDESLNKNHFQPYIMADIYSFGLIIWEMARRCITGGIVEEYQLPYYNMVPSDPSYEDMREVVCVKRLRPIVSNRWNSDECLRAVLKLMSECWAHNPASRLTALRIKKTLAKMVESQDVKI
row,Compound,Kd
1,O=C(O)[C@]1(Cc2cccc(Nc3nccs3)n2)CC[C@@H](Oc2cccc(Cl)c2F)CC1 [MK-5108],> 30 µM (inactive)
2,OCCn1cc(-c2cnc3nnn(Cc4ccc5ncccc5c4)c3n2)cn1 [PF-04217903],> 30 µM (inactive)
3,CNC(=O)c1ccc(C)c(-n2c(C)cc(OCc3ccc(F)cc3F)c(Br)c2=O)c1 [PH-797804],> 30 µM (inactive)

# Molecular target: T2, Probable ATP-dependent RNA helicase DDX6 (Homo sapiens, UniProt P26196)
# T2 sequence (P26196 whole entry): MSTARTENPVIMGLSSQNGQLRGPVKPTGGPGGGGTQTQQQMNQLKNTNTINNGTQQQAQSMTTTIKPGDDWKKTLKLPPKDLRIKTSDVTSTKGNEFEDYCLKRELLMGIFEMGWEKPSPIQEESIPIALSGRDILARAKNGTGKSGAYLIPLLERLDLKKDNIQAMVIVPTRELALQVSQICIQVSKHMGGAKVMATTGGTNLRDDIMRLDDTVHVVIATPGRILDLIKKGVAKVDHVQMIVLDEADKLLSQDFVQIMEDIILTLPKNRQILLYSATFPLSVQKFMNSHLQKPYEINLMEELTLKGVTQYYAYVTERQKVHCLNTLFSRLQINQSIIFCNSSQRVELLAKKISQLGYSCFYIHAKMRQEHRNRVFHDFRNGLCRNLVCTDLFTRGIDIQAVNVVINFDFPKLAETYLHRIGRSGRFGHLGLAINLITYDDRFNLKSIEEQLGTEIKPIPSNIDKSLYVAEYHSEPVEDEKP
row,Compound,Kd
1,O=C(O)[C@]1(Cc2cccc(Nc3nccs3)n2)CC[C@@H](Oc2cccc(Cl)c2F)CC1 [MK-5108],> 30 µM (inactive)
2,Cc1cn(-c2cc(NC(=O)c3ccc(C)c(Nc4nccc(-c5cccnc5)n4)c3)cc(C(F)(F)F)c2)cn1 [NILOTINIB],> 30 µM (inactive)
3,OCCn1cc(-c2cnc3nnn(Cc4ccc5ncccc5c4)c3n2)cn1 [PF-04217903],> 30 µM (inactive)

# Molecular target: Actin-related protein 2 (Homo sapiens, UniProt P61160)
row,Compound,Kd
1,O=C(O)[C@]1(Cc2cccc(Nc3nccs3)n2)CC[C@@H](Oc2cccc(Cl)c2F)CC1 [MK-5108],> 30 µM (inactive)
2,Cc1cn(-c2cc(NC(=O)c3ccc(C)c(Nc4nccc(-c5cccnc5)n4)c3)cc(C(F)(F)F)c2)cn1 [NILOTINIB],> 30 µM (inactive)
3,OCCn1cc(-c2cnc3nnn(Cc4ccc5ncccc5c4)c3n2)cn1 [PF-04217903],> 30 µM (inactive)
4,CNC(=O)c1ccc(C)c(-n2c(C)cc(OCc3ccc(F)cc3F)c(Br)c2=O)c1 [PH-797804],> 30 µM (inactive)

# Molecular target: T3, Ribosyldihydronicotinamide dehydrogenase [quinone] (Homo sapiens, UniProt P16083)
# T3 sequence (P16083 whole entry): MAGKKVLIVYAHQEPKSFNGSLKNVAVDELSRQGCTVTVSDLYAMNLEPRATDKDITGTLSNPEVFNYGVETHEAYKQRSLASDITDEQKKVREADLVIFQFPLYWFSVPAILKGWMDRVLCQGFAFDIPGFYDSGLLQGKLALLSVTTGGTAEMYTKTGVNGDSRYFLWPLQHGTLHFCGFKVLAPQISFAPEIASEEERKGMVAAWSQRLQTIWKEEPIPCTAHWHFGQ
row,Compound,Kd
1,O=C(O)[C@]1(Cc2cccc(Nc3nccs3)n2)CC[C@@H](Oc2cccc(Cl)c2F)CC1 [MK-5108],> 30 µM (inactive)
2,Cc1cn(-c2cc(NC(=O)c3ccc(C)c(Nc4nccc(-c5cccnc5)n4)c3)cc(C(F)(F)F)c2)cn1 [NILOTINIB],1.48 µM (active)
3,OCCn1cc(-c2cnc3nnn(Cc4ccc5ncccc5c4)c3n2)cn1 [PF-04217903],> 30 µM (inactive)
4,CNC(=O)c1ccc(C)c(-n2c(C)cc(OCc3ccc(F)cc3F)c(Br)c2=O)c1 [PH-797804],> 30 µM (inactive)

# Molecular target: cAMP-dependent protein kinase catalytic subunit gamma (Homo sapiens, UniProt P22612)
# Sequence (P22612 whole entry): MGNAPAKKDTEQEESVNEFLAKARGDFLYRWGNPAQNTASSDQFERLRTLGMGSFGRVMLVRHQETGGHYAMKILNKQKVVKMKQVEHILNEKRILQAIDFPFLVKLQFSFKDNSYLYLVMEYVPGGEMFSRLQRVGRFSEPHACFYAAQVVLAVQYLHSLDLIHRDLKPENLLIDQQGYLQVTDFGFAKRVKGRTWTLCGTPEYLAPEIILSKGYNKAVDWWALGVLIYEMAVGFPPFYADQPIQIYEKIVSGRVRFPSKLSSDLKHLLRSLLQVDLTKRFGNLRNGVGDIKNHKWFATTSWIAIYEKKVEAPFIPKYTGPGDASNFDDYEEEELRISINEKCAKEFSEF
row,Compound,Kd
1,Cc1cn(-c2cc(NC(=O)c3ccc(C)c(Nc4nccc(-c5cccnc5)n4)c3)cc(C(F)(F)F)c2)cn1 [NILOTINIB],> 30 µM (inactive)

# Molecular target: Casein kinase II subunit alpha' (Homo sapiens, UniProt P19784)
# Sequence (P19784 whole entry): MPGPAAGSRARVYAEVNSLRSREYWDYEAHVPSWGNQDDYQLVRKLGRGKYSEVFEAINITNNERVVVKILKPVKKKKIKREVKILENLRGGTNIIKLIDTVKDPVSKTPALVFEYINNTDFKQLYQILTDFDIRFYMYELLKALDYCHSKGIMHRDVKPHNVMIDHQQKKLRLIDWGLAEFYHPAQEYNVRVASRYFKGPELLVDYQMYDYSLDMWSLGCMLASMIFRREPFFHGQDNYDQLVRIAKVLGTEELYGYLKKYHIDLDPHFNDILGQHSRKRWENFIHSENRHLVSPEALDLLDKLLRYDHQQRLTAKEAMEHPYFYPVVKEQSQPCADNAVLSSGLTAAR
row,Compound,Kd
1,O=C(O)[C@]1(Cc2cccc(Nc3nccs3)n2)CC[C@@H](Oc2cccc(Cl)c2F)CC1 [MK-5108],> 30 µM (inactive)
2,OCCn1cc(-c2cnc3nnn(Cc4ccc5ncccc5c4)c3n2)cn1 [PF-04217903],> 30 µM (inactive)
3,CNC(=O)c1ccc(C)c(-n2c(C)cc(OCc3ccc(F)cc3F)c(Br)c2=O)c1 [PH-797804],> 30 µM (inactive)

# Molecular target: Serine/threonine-protein kinase 26 (Homo sapiens, UniProt Q9P289)
# Sequence (Q9P289 whole entry): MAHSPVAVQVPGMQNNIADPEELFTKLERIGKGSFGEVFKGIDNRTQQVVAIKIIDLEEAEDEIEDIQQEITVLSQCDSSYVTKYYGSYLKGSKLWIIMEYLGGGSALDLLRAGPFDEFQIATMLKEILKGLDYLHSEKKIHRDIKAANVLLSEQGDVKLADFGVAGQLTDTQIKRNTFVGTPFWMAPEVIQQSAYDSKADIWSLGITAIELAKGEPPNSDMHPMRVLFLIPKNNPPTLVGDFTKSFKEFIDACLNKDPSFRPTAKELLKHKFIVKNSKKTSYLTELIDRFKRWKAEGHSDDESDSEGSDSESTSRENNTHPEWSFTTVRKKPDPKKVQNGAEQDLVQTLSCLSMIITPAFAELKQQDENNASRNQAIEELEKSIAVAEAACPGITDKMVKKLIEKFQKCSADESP
row,Compound,Kd
1,O=C(O)[C@]1(Cc2cccc(Nc3nccs3)n2)CC[C@@H](Oc2cccc(Cl)c2F)CC1 [MK-5108],> 30 µM (inactive)
2,OCCn1cc(-c2cnc3nnn(Cc4ccc5ncccc5c4)c3n2)cn1 [PF-04217903],> 30 µM (inactive)
3,CNC(=O)c1ccc(C)c(-n2c(C)cc(OCc3ccc(F)cc3F)c(Br)c2=O)c1 [PH-797804],> 30 µM (inactive)

# Molecular target: T4, Structural maintenance of chromosomes protein 1A (Homo sapiens, UniProt Q14683)
# T4 sequence (Q14683 whole entry): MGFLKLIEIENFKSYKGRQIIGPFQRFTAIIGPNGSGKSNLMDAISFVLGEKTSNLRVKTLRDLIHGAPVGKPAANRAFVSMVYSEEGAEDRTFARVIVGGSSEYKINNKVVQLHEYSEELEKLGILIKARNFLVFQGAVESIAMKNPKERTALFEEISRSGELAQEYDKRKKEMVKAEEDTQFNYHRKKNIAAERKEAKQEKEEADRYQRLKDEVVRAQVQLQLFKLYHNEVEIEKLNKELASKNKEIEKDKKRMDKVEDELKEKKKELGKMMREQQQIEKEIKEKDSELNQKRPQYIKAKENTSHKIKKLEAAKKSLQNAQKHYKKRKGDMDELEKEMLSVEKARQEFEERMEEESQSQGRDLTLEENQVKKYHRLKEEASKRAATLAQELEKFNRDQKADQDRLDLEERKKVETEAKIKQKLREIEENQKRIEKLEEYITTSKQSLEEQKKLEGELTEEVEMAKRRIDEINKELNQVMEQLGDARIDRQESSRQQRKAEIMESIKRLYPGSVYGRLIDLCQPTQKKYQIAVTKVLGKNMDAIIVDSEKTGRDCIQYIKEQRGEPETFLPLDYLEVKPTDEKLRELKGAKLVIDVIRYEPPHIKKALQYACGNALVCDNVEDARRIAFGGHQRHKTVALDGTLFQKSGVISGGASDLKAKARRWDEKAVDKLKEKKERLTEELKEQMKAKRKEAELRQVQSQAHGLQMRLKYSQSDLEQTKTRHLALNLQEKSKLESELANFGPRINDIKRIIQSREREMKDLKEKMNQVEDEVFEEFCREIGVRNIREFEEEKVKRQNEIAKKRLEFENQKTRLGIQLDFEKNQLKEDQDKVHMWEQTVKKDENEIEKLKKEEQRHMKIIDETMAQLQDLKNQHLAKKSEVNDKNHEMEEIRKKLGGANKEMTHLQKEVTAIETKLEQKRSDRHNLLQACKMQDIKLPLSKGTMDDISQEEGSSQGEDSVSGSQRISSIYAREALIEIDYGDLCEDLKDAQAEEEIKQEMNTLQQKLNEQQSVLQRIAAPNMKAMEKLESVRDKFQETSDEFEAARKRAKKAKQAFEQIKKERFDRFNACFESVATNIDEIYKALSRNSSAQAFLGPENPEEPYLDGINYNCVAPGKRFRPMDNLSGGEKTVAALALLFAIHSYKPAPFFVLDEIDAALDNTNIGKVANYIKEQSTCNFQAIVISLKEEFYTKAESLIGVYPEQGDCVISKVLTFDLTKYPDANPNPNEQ
row,Compound,Kd
1,O=C(O)[C@]1(Cc2cccc(Nc3nccs3)n2)CC[C@@H](Oc2cccc(Cl)c2F)CC1 [MK-5108],> 30 µM (inactive)
2,Cc1cn(-c2cc(NC(=O)c3ccc(C)c(Nc4nccc(-c5cccnc5)n4)c3)cc(C(F)(F)F)c2)cn1 [NILOTINIB],> 30 µM (inactive)
3,CNC(=O)c1ccc(C)c(-n2c(C)cc(OCc3ccc(F)cc3F)c(Br)c2=O)c1 [PH-797804],> 30 µM (inactive)

# Molecular target: Serine/threonine-protein kinase/endoribonuclease IRE1 (Homo sapiens, UniProt O75460)
# Sequence (O75460 whole entry): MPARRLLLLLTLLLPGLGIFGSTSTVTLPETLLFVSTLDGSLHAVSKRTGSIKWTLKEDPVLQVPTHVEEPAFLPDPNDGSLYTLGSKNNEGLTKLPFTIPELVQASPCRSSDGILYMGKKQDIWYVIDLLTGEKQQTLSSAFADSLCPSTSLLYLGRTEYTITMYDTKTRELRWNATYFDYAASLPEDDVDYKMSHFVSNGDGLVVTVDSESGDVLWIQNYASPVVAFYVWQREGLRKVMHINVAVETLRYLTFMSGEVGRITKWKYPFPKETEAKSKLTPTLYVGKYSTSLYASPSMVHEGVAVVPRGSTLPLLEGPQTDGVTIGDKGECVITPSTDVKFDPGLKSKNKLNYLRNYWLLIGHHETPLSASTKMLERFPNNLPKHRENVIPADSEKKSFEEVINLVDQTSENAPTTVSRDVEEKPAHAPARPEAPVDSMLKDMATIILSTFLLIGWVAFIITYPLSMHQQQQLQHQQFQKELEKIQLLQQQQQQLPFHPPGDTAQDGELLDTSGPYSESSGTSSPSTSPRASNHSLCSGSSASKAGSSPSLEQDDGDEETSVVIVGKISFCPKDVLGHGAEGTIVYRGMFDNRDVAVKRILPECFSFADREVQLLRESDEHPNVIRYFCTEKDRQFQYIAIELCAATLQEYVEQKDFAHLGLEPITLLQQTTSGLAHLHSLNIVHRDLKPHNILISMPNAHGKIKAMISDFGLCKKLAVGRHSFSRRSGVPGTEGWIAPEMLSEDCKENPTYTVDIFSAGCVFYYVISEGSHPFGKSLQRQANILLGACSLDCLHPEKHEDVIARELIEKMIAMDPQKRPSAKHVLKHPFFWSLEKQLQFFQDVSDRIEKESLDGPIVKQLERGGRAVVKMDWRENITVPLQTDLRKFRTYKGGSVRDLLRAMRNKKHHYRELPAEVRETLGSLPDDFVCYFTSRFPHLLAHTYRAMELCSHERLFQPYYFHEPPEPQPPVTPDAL
row,Compound,Kd
1,O=C(O)[C@]1(Cc2cccc(Nc3nccs3)n2)CC[C@@H](Oc2cccc(Cl)c2F)CC1 [MK-5108],> 30 µM (inactive)
2,OCCn1cc(-c2cnc3nnn(Cc4ccc5ncccc5c4)c3n2)cn1 [PF-04217903],> 30 µM (inactive)
3,CNC(=O)c1ccc(C)c(-n2c(C)cc(OCc3ccc(F)cc3F)c(Br)c2=O)c1 [PH-797804],> 30 µM (inactive)

# — ChEMBL document CHEMBL3991601, “The target landscape of clinical kinase drugs” (Science, 2017)
